# Experimental data: patent US7531193B2 (priority 2004, dated 2009)
# “And” between values parts separate entries of the source, which are not always exact repeats. Equal values may be shown once.
# Tested on: human striated muscle cell innervation with spinal cord and spinal ganglion explants from rat embryos
# Format: cell-based, human (muscle cells), rat (embryo explants)
smiles,measurement,value
"C/C=C/C=C\CC/C=C/C(=O)NCC(C)C [Pure spilanthol, spilanthol]",Effect on muscle contractions (conclusion),lead to a blockage of muscle contractions
same,"Frequency of contractions (%), incubation without washout, 5 min",0% and 7%
same,"Frequency of contractions (%), incubation without washout, 1 h",0%
same,"Frequency of contractions (%), incubation without washout, 6 h",0% and 4%
same,"Frequency of contractions (%), recuperation after washout, 1 h",0%
same,Incubation time after which muscle contractions are blocked,5 min
same,Recuperation of contractile activity (conclusion),not observed
same,Time the fibres remain blocked after elimination of the substance,24 h
same,Time until which the blockage is maintained during incubation,6 h
